{"source": "PubChem BioAssay AID651978", "about": "(The Scripps Research Institute Molecular Screening Center, 2013)", "experiment_in_all_cases": "PubChem AID 651978", "key": {"AADACL1": {"test_system": "AADACL1", "details": "BW5147 mouse T-cell proteome, ABPP-SILAC LC-MS ratio, at 1 µM, active compounds read low"}, "ABHD12": {"test_system": "ABHD12", "details": "BW5147 mouse T-cell proteome, ABPP-SILAC LC-MS ratio, at 1 µM, active compounds read low"}, "ACOT1": {"test_system": "ACOT1", "details": "BW5147 mouse T-cell proteome, ABPP-SILAC LC-MS ratio, at 1 µM, active compounds read low"}, "ACOT2": {"test_system": "ACOT2", "details": "BW5147 mouse T-cell proteome, ABPP-SILAC LC-MS ratio, at 1 µM, active compounds read low"}, "APEH": {"test_system": "APEH", "details": "BW5147 mouse T-cell proteome, ABPP-SILAC LC-MS ratio, at 1 µM, active compounds read low"}, "[1]": {"target": "Acyl-protein thioesterase 1 (Mus musculus) (UniProt P97823)", "sequence (P97823 whole entry, looked up)": "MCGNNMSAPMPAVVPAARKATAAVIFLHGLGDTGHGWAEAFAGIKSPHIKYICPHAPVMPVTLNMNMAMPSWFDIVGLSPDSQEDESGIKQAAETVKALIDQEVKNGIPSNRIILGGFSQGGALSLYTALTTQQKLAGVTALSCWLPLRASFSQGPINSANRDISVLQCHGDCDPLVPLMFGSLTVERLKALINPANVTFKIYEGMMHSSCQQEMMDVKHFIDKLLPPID", "details": "BW5147 mouse T-cell proteome, ABPP-SILAC LC-MS ratio; LYPLA1; at 1 µM; active compounds read low"}, "CTSA": {"test_system": "CTSA", "details": "BW5147 mouse T-cell proteome, ABPP-SILAC LC-MS ratio, at 1 µM, active compounds read low"}, "DPP4": {"test_system": "DPP4", "details": "BW5147 mouse T-cell proteome, ABPP-SILAC LC-MS ratio, at 1 µM, active compounds read low"}, "DPP7": {"test_system": "DPP7", "details": "BW5147 mouse T-cell proteome, ABPP-SILAC LC-MS ratio, at 1 µM, active compounds read low"}, "DPP8": {"test_system": "DPP8", "details": "BW5147 mouse T-cell proteome, ABPP-SILAC LC-MS ratio, at 1 µM, active compounds read low"}, "DPP9": {"test_system": "DPP9", "details": "BW5147 mouse T-cell proteome, ABPP-SILAC LC-MS ratio, at 1 µM, active compounds read low"}, "ESD": {"test_system": "ESD", "details": "BW5147 mouse T-cell proteome, ABPP-SILAC LC-MS ratio, at 1 µM, active compounds read low"}, "FAAH": {"test_system": "FAAH", "details": "BW5147 mouse T-cell proteome, ABPP-SILAC LC-MS ratio, at 1 µM, active compounds read low"}, "FASN": {"test_system": "FASN", "details": "BW5147 mouse T-cell proteome, ABPP-SILAC LC-MS ratio, at 1 µM, active compounds read low"}, "LACTB": {"test_system": "LACTB", "details": "BW5147 mouse T-cell proteome, ABPP-SILAC LC-MS ratio, at 1 µM, active compounds read low"}, "LIPA": {"test_system": "LIPA", "details": "BW5147 mouse T-cell proteome, ABPP-SILAC LC-MS ratio, at 1 µM, active compounds read low"}, "LYPLA2": {"test_system": "LYPLA2", "details": "BW5147 mouse T-cell proteome, ABPP-SILAC LC-MS ratio, at 1 µM, active compounds read low"}, "[2]": {"target": "Monoacylglycerol lipase ABHD6 (Mus musculus) (UniProt Q8R2Y0)", "sequence (Q8R2Y0 whole entry, looked up)": "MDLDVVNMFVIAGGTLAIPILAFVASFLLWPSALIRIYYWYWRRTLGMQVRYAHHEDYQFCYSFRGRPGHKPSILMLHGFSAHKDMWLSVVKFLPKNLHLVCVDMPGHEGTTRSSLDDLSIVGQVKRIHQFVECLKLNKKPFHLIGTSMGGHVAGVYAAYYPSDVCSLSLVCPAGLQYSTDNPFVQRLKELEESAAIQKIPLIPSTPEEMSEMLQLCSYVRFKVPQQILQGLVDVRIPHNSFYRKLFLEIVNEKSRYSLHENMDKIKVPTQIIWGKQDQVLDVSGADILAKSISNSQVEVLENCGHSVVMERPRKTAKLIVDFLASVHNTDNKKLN", "details": "BW5147 mouse T-cell proteome, ABPP-SILAC LC-MS ratio, at 1 µM, active compounds read low"}, "PAFAH1B2": {"test_system": "PAFAH1B2", "details": "BW5147 mouse T-cell proteome, ABPP-SILAC LC-MS ratio, at 1 µM, active compounds read low"}, "PAFAH1B3": {"test_system": "PAFAH1B3", "details": "BW5147 mouse T-cell proteome, ABPP-SILAC LC-MS ratio, at 1 µM, active compounds read low"}, "PNPLA6": {"test_system": "PNPLA6", "details": "BW5147 mouse T-cell proteome, ABPP-SILAC LC-MS ratio, at 1 µM, active compounds read low"}, "PNPLA7": {"test_system": "PNPLA7", "details": "BW5147 mouse T-cell proteome, ABPP-SILAC LC-MS ratio, at 1 µM, active compounds read low"}, "PRCP": {"test_system": "PRCP", "details": "BW5147 mouse T-cell proteome, ABPP-SILAC LC-MS ratio, at 1 µM, active compounds read low"}, "PREPL": {"test_system": "PREPL", "details": "BW5147 mouse T-cell proteome, ABPP-SILAC LC-MS ratio, at 1 µM, active compounds read low"}, "[3]": {"target": "Palmitoyl-protein thioesterase ABHD10, mitochondrial (Mus musculus) (UniProt Q6PE15)", "sequence (Q6PE15 whole entry, looked up)": "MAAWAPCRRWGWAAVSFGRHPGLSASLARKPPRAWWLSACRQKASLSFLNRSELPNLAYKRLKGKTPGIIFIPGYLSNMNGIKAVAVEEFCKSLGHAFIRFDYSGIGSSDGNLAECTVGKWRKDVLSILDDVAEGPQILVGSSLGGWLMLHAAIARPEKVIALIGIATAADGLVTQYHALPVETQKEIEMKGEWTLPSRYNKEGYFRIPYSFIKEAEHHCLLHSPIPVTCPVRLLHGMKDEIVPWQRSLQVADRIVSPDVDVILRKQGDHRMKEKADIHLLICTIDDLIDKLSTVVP", "details": "BW5147 mouse T-cell proteome, ABPP-SILAC LC-MS ratio, at 1 µM, active compounds read low"}, "[4]": {"target": "Platelet-activating factor acetylhydrolase 2, cytoplasmic (Mus musculus) (UniProt Q8VDG7)", "sequence (Q8VDG7 whole entry, looked up)": "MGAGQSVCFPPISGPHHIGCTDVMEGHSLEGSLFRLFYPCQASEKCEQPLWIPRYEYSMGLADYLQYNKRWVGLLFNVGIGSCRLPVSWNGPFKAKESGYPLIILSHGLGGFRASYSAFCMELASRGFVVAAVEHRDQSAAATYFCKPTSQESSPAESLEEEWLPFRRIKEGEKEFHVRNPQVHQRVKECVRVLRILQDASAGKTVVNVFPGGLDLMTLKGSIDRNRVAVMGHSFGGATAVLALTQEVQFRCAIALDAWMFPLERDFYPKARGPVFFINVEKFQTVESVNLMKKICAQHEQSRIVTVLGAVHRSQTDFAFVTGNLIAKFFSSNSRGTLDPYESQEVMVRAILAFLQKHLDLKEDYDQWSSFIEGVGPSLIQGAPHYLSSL", "details": "BW5147 mouse T-cell proteome, ABPP-SILAC LC-MS ratio; PAFAH2; at 1 µM; active compounds read low"}, "[5]": {"target": "Prolyl endopeptidase (Mus musculus) (UniProt Q9QUR6)", "sequence (Q9QUR6 whole entry, looked up)": "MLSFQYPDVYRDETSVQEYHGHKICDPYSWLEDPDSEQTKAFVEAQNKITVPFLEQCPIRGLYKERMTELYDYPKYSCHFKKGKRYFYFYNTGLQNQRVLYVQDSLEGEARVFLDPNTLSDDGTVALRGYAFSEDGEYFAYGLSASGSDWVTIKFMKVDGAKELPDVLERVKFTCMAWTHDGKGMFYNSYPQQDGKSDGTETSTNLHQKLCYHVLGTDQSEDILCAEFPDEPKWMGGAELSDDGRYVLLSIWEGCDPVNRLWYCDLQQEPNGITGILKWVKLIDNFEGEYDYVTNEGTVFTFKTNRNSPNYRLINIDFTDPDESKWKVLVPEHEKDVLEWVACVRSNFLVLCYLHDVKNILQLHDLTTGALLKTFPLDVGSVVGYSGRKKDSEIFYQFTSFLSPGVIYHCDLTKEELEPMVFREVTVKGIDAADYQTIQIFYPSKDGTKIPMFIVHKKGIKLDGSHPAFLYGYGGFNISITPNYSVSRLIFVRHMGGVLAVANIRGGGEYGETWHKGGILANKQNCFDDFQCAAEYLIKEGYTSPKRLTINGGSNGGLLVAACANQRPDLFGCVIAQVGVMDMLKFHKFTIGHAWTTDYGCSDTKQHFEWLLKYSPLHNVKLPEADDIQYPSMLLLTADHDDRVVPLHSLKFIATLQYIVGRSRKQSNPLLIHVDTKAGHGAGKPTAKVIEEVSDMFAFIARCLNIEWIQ", "details": "BW5147 mouse T-cell proteome, ABPP-SILAC LC-MS ratio; PREP; at 1 µM; active compounds read low"}, "SIAE": {"test_system": "SIAE", "details": "BW5147 mouse T-cell proteome, ABPP-SILAC LC-MS ratio, at 1 µM, active compounds read low"}, "[6]": {"target": "sn-1-specific diacylglycerol lipase ABHD11 (Mus musculus) (UniProt Q8K4F5)", "sequence (Q8K4F5 whole entry, looked up)": "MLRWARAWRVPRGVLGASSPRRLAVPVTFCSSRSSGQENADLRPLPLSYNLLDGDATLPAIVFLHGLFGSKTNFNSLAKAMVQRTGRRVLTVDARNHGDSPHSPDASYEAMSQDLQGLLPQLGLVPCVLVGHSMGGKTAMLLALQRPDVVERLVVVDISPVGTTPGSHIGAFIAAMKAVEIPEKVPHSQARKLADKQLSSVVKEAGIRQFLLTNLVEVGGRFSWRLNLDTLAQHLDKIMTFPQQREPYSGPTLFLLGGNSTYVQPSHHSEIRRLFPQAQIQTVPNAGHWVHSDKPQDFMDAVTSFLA", "details": "BW5147 mouse T-cell proteome, ABPP-SILAC LC-MS ratio, at 1 µM, active compounds read low"}}, "note": "Activity calls are given as the source filed them. The rule behind the calls is not given here."}
{"smiles": "O=C(CN1CCN(C(=O)c2ccco2)CC1)Nc1cc(C(F)(F)F)ccc1Cl", "values": [{"measurement": "light/heavy ratio (remaining activity)", "setting": "AADACL1", "value": "1.05 (inactive)"}, {"measurement": "light/heavy ratio (remaining activity)", "setting": "ABHD12", "value": "1.29 (inactive)"}, {"measurement": "light/heavy ratio (remaining activity)", "setting": "ACOT1", "value": "1.22 (inactive)"}, {"measurement": "light/heavy ratio (remaining activity)", "setting": "ACOT2", "value": "1.08 (inactive)"}, {"measurement": "light/heavy ratio (remaining activity)", "setting": "APEH", "value": "1.06 (inactive)"}, {"measurement": "light/heavy ratio (remaining activity)", "setting": "[1]", "value": 0.03}, {"measurement": "light/heavy ratio (remaining activity)", "setting": "CTSA", "value": "1.11 (inactive)"}, {"measurement": "light/heavy ratio (remaining activity)", "setting": "DPP4", "value": "1.24 (inactive)"}, {"measurement": "light/heavy ratio (remaining activity)", "setting": "DPP7", "value": "0.87 (inactive)"}, {"measurement": "light/heavy ratio (remaining activity)", "setting": "DPP8", "value": "1.08 (inactive)"}, {"measurement": "light/heavy ratio (remaining activity)", "setting": "DPP9", "value": "1.06 (inactive)"}, {"measurement": "light/heavy ratio (remaining activity)", "setting": "ESD", "value": "1.05 (inactive)"}, {"measurement": "light/heavy ratio (remaining activity)", "setting": "FAAH", "value": "1.19 (inactive)"}, {"measurement": "light/heavy ratio (remaining activity)", "setting": "FASN", "value": "1.1 (inactive)"}, {"measurement": "light/heavy ratio (remaining activity)", "setting": "LACTB", "value": "1.23 (inactive)"}, {"measurement": "light/heavy ratio (remaining activity)", "setting": "LIPA", "value": "1.12 (inactive)"}, {"measurement": "light/heavy ratio (remaining activity)", "setting": "LYPLA2", "value": "0.84 (inactive)"}, {"measurement": "light/heavy ratio (remaining activity)", "setting": "[2]", "value": "1.18 (inactive)"}, {"measurement": "light/heavy ratio (remaining activity)", "setting": "PAFAH1B2", "value": "1.04 (inactive)"}, {"measurement": "light/heavy ratio (remaining activity)", "setting": "PAFAH1B3", "value": "1.04 (inactive)"}, {"measurement": "light/heavy ratio (remaining activity)", "setting": "PNPLA6", "value": "1.2 (inactive)"}, {"measurement": "light/heavy ratio (remaining activity)", "setting": "PNPLA7", "value": "1.29 (inactive)"}, {"measurement": "light/heavy ratio (remaining activity)", "setting": "PRCP", "value": "0.97 (inactive)"}, {"measurement": "light/heavy ratio (remaining activity)", "setting": "PREPL", "value": "0.95 (inactive)"}, {"measurement": "light/heavy ratio (remaining activity)", "setting": "[3]", "value": "0.76 (inactive)"}, {"measurement": "light/heavy ratio (remaining activity)", "setting": "[4]", "value": "1.3 (inactive)"}, {"measurement": "light/heavy ratio (remaining activity)", "setting": "[5]", "value": "1.08 (inactive)"}, {"measurement": "light/heavy ratio (remaining activity)", "setting": "SIAE", "value": "0.98 (inactive)"}, {"measurement": "light/heavy ratio (remaining activity)", "setting": "[6]", "value": "0.74 (inactive)"}]}
